According to US20120022054A1, “NOVEL SUBSTITUTED ARYL DERIVATIVES, THEIR PROCESS OF PREPARATION AND THEIR THERAPEUTICAL USES AS ANTI-HIV AGENTS” (priority 2008, published 2012):
Where two headings read alike, the source gives them in different places.

Experiments:
[1] = system: Env-deleted NL4-3 vector virus pseudotyped with the VSV g envelope; experiment: microbe, parasite or virus in culture; type: cell-based, HIV-1; settings: Vesicular stomatitis virus, NL43, SUP-T1, 48 h, read-out: EC50 for antiviral activity (50% inhibition of luciferase activity)
NL4-3 strain of HIV-1 = experiment: Multiple cycle infection assay of CAp24 antigen production; type: cell-based; settings: Human immunodeficiency virus 1, NL43, SUP-T1, 96 h, read-out: EC50 for antiviral activity (50% inhibition of CA p24 production)
[2] = multiple cycle infection with NL4-3 virus, SupT1, MT4 or PBMC, MOI 0.01, day 4 and day −6 post-infection, threshold below 5 μM

**Q.** For `COc1ccccc1CN(C)C(=O)CCCSc1ccc(NS(C)(=O)=O)cc1` [Example 93, N-(2-Methoxybenzyl)-N-methyl-4-{[4-(methylsulfonylamino)phenyl]thio}butanamide], which EC50 [1] is on record?
**A.** The EC50 was < 5 µM.

**Q.** And the EC50 (NL4-3 strain of HIV-1; [2])?
**A.** Its EC50 is < 5 µM.

**Q.** With `CN(Cc1ccccc1-c1ccco1)C(=O)CCCSc1ccc(F)cc1` [Example 95, 4-[(4-fluorophenyl)thio]-N-[2-(2-furyl)benzyl]-N-methylbutanamide] as the compound, how does the EC50 [1] read?
**A.** The EC50 was < 5 µM.

**Q.** And the EC50 (NL4-3 strain of HIV-1; [2])?
**A.** The EC50 was < 5 µM.

**Q.** Which results are given for `CN(Cc1cc(F)cc2c1OCOC2)C(=O)CCCSc1ccc(F)cc1` [Example 96, N-[(6-fluoro-4H-1,3-benzodioxin-8-yl)methyl]-4-[(4-fluorophenyl)thio]-N-methylbutanamide]?
**A.** EC50 [1]: < 5 µM; EC50 (NL4-3 strain of HIV-1; [2]): < 5 µM

**Q.** Which results are given for `COc1ccc(-n2cccn2)c(CN(C)C(=O)CCCSc2ccc(F)cc2)c1` [Example 98, 4-[(4-fluorophenyl)thio]-N-[5-methoxy-2-(pyrazol-1-yl)benzyl]-N-methylbutanamide]?
**A.** EC50 [1]: < 5 µM; EC50 (NL4-3 strain of HIV-1; [2]): < 5 µM

**Q.** With `C=CCOc1ccc(Cl)cc1CN(C)C(=O)CCCSc1ccc(F)cc1` [Example 101, N-[2-(allyloxy)-5-chlorobenzyl]-4-[(4-fluorophenyl)thio]-N-methylbutanamide] as the compound, how does the EC50 [1] read?
**A.** Its EC50 is < 5 µM.

**Q.** And the EC50 (NL4-3 strain of HIV-1; [2])?
**A.** Its EC50 is < 5 µM.

**Q.** For `COc1ccc(F)cc1N(C)C(=O)CCCSc1ccc(F)cc1` [Example 102, N-(5-fluoro-2-methoxyphenyl)-4-[(4-fluorophenyl)thio]-N-methylbutanamide], which EC50 [1] is on record?
**A.** Its EC50 is < 5 µM.

**Q.** What about the EC50 (NL4-3 strain of HIV-1; [2]) of the same compound?
**A.** The EC50 was < 5 µM.

**Q.** Which EC50 [1] does the source give for `COc1ccc2c(ccn2CCCC(=O)N(C)Cc2cc(F)ccc2OC)c1` [Example 109, N-(5-fluoro-2-methoxybenzyl)-4-(5-methoxy-1H-indol-1-yl)-N-methylbutanamide] here?
**A.** Its EC50 is < 5 µM.

**Q.** And the EC50 (NL4-3 strain of HIV-1; [2])?
**A.** The EC50 was < 5 µM.

**Q.** What does the source list for `COc1ccc(F)cc1CN(C)C(=O)CCCSc1ccc(C)cc1` [Example 111, N-(5-fluoro-2-methoxybenzyl)-N-methyl-4-[(4-methylphenyl)thio]butanamide]?
**A.** EC50 [1]: < 5 µM; EC50 (NL4-3 strain of HIV-1; [2]): < 5 µM

**Q.** What does the source list for `COc1ccc(F)cc1CN(C)C(=O)CCCSc1ccc(Cl)cc1` [Example 112, 4-[(4-chlorophenyl)thio]-N-(5-fluoro-2-methoxybenzyl)-N-methylbutanamide]?
**A.** EC50 [1]: < 5 µM; EC50 (NL4-3 strain of HIV-1; [2]): < 5 µM

**Q.** How did the EC50 [1] turn out when `COc1ccc(SCCCC(=O)N(C)Cc2cc(Cl)ccc2OC)cc1` [Example 115, N-(5-chloro-2-methoxybenzyl)-4-[(4-methoxyphenyl)thio]-N-methylbutanamide] was run?
**A.** Its EC50 is < 5 µM.

**Q.** And the EC50 (NL4-3 strain of HIV-1; [2])?
**A.** The EC50 was < 5 µM.

**Q.** What does the source list for `COc1ccc(SCCCC(=O)N(C)Cc2cc(F)ccc2OC(C)C)cc1` [Example 117, N-(5-fluoro-2-isopropoxybenzyl)-4-[(4-methoxyphenyl)thio]-N-methylbutanamide]?
**A.** EC50 [1]: < 5 µM; EC50 (NL4-3 strain of HIV-1; [2]): < 5 µM

**Q.** What does the source list for `COc1ccc(SCCCC(=O)N(C)Cc2cc(C)ccc2OC)cc1` [Example 119, 4-[(4-methoxyphenyl)thio]-N-[2-methoxy-5-methylbenzyl]-N-methylbutanamide]?
**A.** EC50 [1]: < 5 µM; EC50 (NL4-3 strain of HIV-1; [2]): < 5 µM

**Q.** For `COc1ccc(C)cc1CN(C)C(=O)CCCn1ccc2ccc(F)cc21` [Example 121, 4-(6-fluoro-1H-indol-1-yl)-N-(2-methoxy-5-methylbenzyl)-N-methylbutanamide], which EC50 [1] is on record?
**A.** Its EC50 is < 5 µM.

**Q.** What about the EC50 (NL4-3 strain of HIV-1; [2]) of the same compound?
**A.** The EC50 was < 5 µM.

**Q.** How did the EC50 [1] turn out when `CN(Cc1ccccc1-c1ccco1)C(=O)CCCn1ccc2cc(F)ccc21` [Example 122, 4-(5-fluoro-1H-indol-1-yl)-N-(2-(furan-2-yl)benzyl)-N-methylbutanamide] was run?
**A.** Its EC50 is < 5 µM.

**Q.** And the EC50 (NL4-3 strain of HIV-1; [2])?
**A.** Its EC50 is < 5 µM.

**Q.** Which EC50 [1] does the source give for `COc1ccc(SCCCC(=O)N(C)Cc2cc(C)ccc2N2CCOCC2)cc1` [Example 124, 4-[(4-methoxyphenyl)thio]-N-[5-methyl-2-(morpholin-4-yl)benzyl]-N-methylbutanamide] here?
**A.** Its EC50 is < 5 µM.

**Q.** And the EC50 (NL4-3 strain of HIV-1; [2])?
**A.** The EC50 was < 5 µM.

**Q.** Which results are given for `COc1ccccc1N(C)C(=O)CCCSc1ccc(F)cc1` [Example 126, 4-[(4-Fluorophenyl)thio]-N-(2-methoxyphenyl)-N-methylbutanamide]?
**A.** EC50 [1]: < 5 µM; EC50 (NL4-3 strain of HIV-1; [2]): < 5 µM

**Q.** Which results are given for `CN(C(=O)CCCSc1ccc(F)cc1)c1cccc2cnccc12` [Example 131, 4-[(4-fluorophenyl)thio]-N-isoquinolin-5-yl-N-methylbutanamide]?
**A.** EC50 [1]: < 5 µM; EC50 (NL4-3 strain of HIV-1; [2]): < 5 µM

**Q.** Which results are given for `COc1ccc([S+]([O-])CCCC(=O)N(C)c2nccc3ccccc23)cc1` (stereo not drawn) [Example 133, N-isoquinolin-1-yl-4-[(4-methoxyphenyl)sulfinyl]-N-methylbutanamide]?
**A.** EC50 [1]: < 5 µM; EC50 (NL4-3 strain of HIV-1; [2]): < 5 µM

**Q.** `COc1ccccc1CN(C)C(=O)CCCSc1ccc(F)c(Cl)c1` [Example 141, 4-[(3-Chloro-4-fluorophenyl)thio]-N-(2-methoxybenzyl)-N-methylbutanamide] was tested. Which EC50 [1] did it give?
**A.** The EC50 was < 5 µM.

**Q.** And the EC50 (NL4-3 strain of HIV-1; [2])?
**A.** The EC50 was < 5 µM.

**Q.** With `COC(=O)c1ccc(SCCCC(=O)N(C)Cc2cc(F)ccc2OC)cc1` [Example 147, Methyl 4-({4-[(5-fluoro-2-methoxybenzyl)methylamino]-4-oxobutyl}thio)benzoate] as the compound, how does the EC50 [1] read?
**A.** The EC50 was < 5 µM.

**Q.** And the EC50 (NL4-3 strain of HIV-1; [2])?
**A.** The EC50 was < 5 µM.

**Q.** With `COc1ccc(F)cc1CN(C)C(=O)CCCSc1ccc(CO)cc1` [Example 148, N-(5-fluoro-2-methoxybenzyl)-4-{[4-(hydroxymethyl)phenyl]thio}-N-methylbutanamide] as the compound, how does the EC50 [1] read?
**A.** The EC50 was < 5 µM.

**Q.** And the EC50 (NL4-3 strain of HIV-1; [2])?
**A.** The EC50 was < 5 µM.

**Q.** For `COc1ccccc1CN(C)C(=S)CCCSc1ccc(O)cc1` [Example 164, 4-[(4-Hydroxyphenyl)thio]-N-(2-methoxybenzyl)-N-methylbutanethioamide], which EC50 [1] is on record?
**A.** Its EC50 is < 5 µM.

**Q.** What about the EC50 (NL4-3 strain of HIV-1; [2]) of the same compound?
**A.** The EC50 was < 5 µM.

**Q.** With `CN(Cc1ccccc1C1=CCNCC1)C(=O)CCCSc1ccc(O)cc1` [Example 168, 4-[(4-Hydroxyphenyl)thio]-N-methyl-N-[2-(1,2,3,6-tetrahydropyridin-4-yl)benzyl]butanamide] as the compound, how does the EC50 [1] read?
**A.** Its EC50 is < 5 µM.

**Q.** What about the EC50 (NL4-3 strain of HIV-1) of the same compound?
**A.** The EC50 was < 5 µM.

**Q.** How did the EC50 [1] turn out when `CCOC(=O)c1cc(F)ccc1SCCCC(=O)N(C)c1cccc(F)c1` [Example 193, Ethyl 5-fluoro-2-({4-[(3-fluorophenyl)(methyl)amino]-4-oxobutyl}thio)benzoate] was run?
**A.** Its EC50 is < 5 µM.

**Q.** And the EC50 (NL4-3 strain of HIV-1; [2])?
**A.** Its EC50 is < 5 µM.
